35 compounds from a melting point compilation (Tetko et al.; mined from patent text by program, amines drawn as free bases though some values may be those of a salt) can be followed below.

Molecules are shown by their SMILES.

Turning to `CCNC(=O)C=Cc1ccc(C(=C(CC)c2ccccc2)c2ccccc2)cc1`, the melting point (in general, the temperature of the solid-liquid transition) is 192 to 193 °C. Compound `Cc1cc(NS(=O)(=O)c2ccccc2F)cc(C)c1S(=O)(=O)C[N+](=O)[O-]` came in with a melting point of 175 to 177 °C. For `CNCc1cccc2c(=O)c(C)c(-c3ccccc3)oc12`, the melting point was in the range of 97 to 99 °C.

The compound `CN1C(=O)N2CCOC2(c2ccccc2)c2cc(Cl)ccc21` (stereo not given) gave a melting point of 124 to 125 °C. As for `O=C(O)CCc1cn(-c2cccnc2)c2ccccc12`, the figure is 147 to 149 °C; as for `COc1ccccc1-c1ccc(C)n1CC[C@H]1C[C@H](O)CC(=O)O1` (relative stereo), 112 to 114 °C; as for `O=C(O)c1cc(=O)cc(C=Cc2ccc(O)cc2)o1`, 256 °C. As for `CNC(=O)Cn1c(-c2ccc([N+](=O)[O-])cc2)nc2cccnc21`, the figure is over 260 °C. As for `COc1cc(-c2cnc3[nH]cc(C(=O)C4(C)CCCC4)c3n2)cc(OC)c1OC`, the figure is 244 to 246 °C. In turn, `COc1cc(C2CCOC2=O)c([N+](=O)[O-])cc1OC` (stereo not given) came in with a melting point of 144 to 147 °C. Compound `CC(C)(C)NC(=O)[C@@H]1C[C@@H](O)CN1C(=O)OC(C)(C)C` registered a melting point of 192 to 193 °C. As to `O=C(NCc1ccncc1)c1cccnc1Oc1cccnc1`, the melting point fell in the range of 142 to 144 °C. `COC(=O)Cc1ccccc1CSc1nc2cc(C(F)(F)F)ccc2s1` yielded a melting point of 97 to 99 °C.

Turning to `O=C1C=C(c2ccccc2)CC(C(=O)O)C1` (stereo not given), the melting point was in the range of 140 to 160 °C.

`CCOC(=O)c1cc2cc(OCCCOC)cc([N+](=O)[O-])c2[nH]1` showed a melting point of 94 to 95 °C. As to `CC(C)(C)OC(=O)CCc1ccc(Cc2nnn(C(C)(C)C)n2)cc1`, the melting point lay within 54 to 55 °C. For `Cc1c(-c2ccccc2)nc(C(C)C)c(CO)c1-c1ccc(F)cc1`, the melting point fell in the range of 182 to 184 °C. As for `COc1cc(Nc2nccc(-c3ccc(N4CCNC(CCO)C4)nc3)n2)cc(OC)c1OC` (stereo not given), the figure is 150 to 151 °C; as for `C=CCOn1c(=O)c2cc(F)c(N3CCCC3)cc2n(Cc2ccccc2)c1=O`, 148 to 150 °C; as for `CCOC(=O)C[C@@H](CCCc1ccncc1)C(=O)N[C@H]1Cc2cn(c3ccccc23)CCOCCNC1=O`, 203 to 205 °C. The compound `CC(C)CN(CC(O)C(Cc1ccccc1)NC(=O)C(CC(N)=O)NC(=O)c1ccc2ccccc2n1)C(=O)NC(C)(C)C` (stereo not given) displayed a melting point of 107 to 110 °C. For `O=C1OCC(c2ccc(Cl)cc2)C1CSCc1ccccc1` (stereo not given) the value was 66 to 69 °C; for `Cc1cccc2c1CCN=C2c1ccc(F)cc1`, 71 to 71.5 °C; for `Clc1ccc2c(c1)CCn1ccnc1C2=C1CCNCC1`, 197 °C. As for `CC(C)N1CC(CCl)C(c2ccccc2)(c2ccccc2)C1=O` (stereo not given), the figure is 114 to 116 °C; as for `CCOC(=O)C1=C(COCc2ccc(CN3CCOCC3)o2)NC(C)=C(C(=O)OC)C1c1ccccc1Cl` (stereo not given), 85 to 87 °C. As for `Cn1c(=O)cc(-c2cccc(Cl)c2)c2cc(C(=O)c3ccc([N+](=O)[O-])cc3)ccc21`, the figure is 174 °C; as for `FC(F)(F)c1cc(Cl)c(-c2nc(C(F)(F)F)c(Br)[nH]2)c(Cl)c1`, 295 °C. In turn, `CCOC(=O)NC=Cc1ccc(OCC(O)CNC(C)(C)C)cc1` (stereo not given) gave a melting point of 99 to 100 °C. For `O=C(Cl)C12CC(C(=O)Cl)(C1)C2` the value was 55 to 57 °C; for `Cc1cccc2ncc(C(=O)Nc3ccccc3)c(=O)n12`, 186 to 188 °C.

As to `CCCCc1nc2c(N)nc3c(c2n1CC(C)C)CCNC3`, the melting point fell in the range of 164 to 166 °C.

`COc1ccc(Cn2ncc3c4c(cnc32)CN(C(=O)Nc2ccccc2)CC4)cc1` had a melting point of over 65 °C. For `CCOC(=O)C1=CCCCC1S(=O)(=O)Nn1cccc1Cl` (stereo not given) the value was 60 to 61 °C; for `Cc1c(CC(=O)OCCCCO)cc(-c2ccc(S(C)(=O)=O)cc2)n1-c1ccc(F)cc1`, 149 to 151 °C.
